# US6727253B2, “Treatment of accidental extravasation of anthracyclines” (Antianthra APS, priority 1999, dated 2004)
# Like-named read-outs stand apart in the source and are kept apart here.
# Tests used:
# [1] = test system: wound after daunorubicin SC in swine; assay: Pilot study on swine, daunorubicin SC; format: in vivo; conditions: 1 ml daunorubicin SC
# Experimental: (§1) A danish porker weighting approximately 30 kg was used. The animals were fully anesthesized and artificially ventilated during SC injection of 1 ml of anthracycline.
# [2] = test system: extravasation of doxorubicin in a patient; assay: Clinical results in a patient with doxorubicin extravasation; format: in vivo
# [3] = test system: SC idarubicin induced wounds in mice; conditions: for AUC / DW / FW / TTW: Table A
# Experimental: The mice were euthanized after healing of all wounds.
# […] Half of the groups served a saline controls, whereas in the other half of the groups ICRF-187 250 mg/kg was administered IP at t=0.
# [4] = test system: wound after doxorubicin SC in swine; assay: Pilot study on swine, doxorubicin SC; format: in vivo; conditions: 3 mg doxorubicin SC, ICRF-187 25 mg/kg IV at t=0
# Experimental: as §1
# [5] = Example 9, idarubicin 0.05 mg/kg sc + ICRF-187 250 mg/kg IP at t=0
# [6] = Example 9, idarubicin 0.25 mg/kg sc + ICRF-187 250 mg/kg IP at t=0
# [7] = Example 9, idarubicin 0.75 mg/kg sc + ICRF-187 250 mg/kg IP at t=0
# [8] = idarubicin 0.05 mg/kg SC + DEX 250 mg/kg IP at t=0
# [9] = idarubicin 0.25 mg/kg SC + DEX 250 mg/kg IP at t=0
# [10] = idarubicin 0.75 mg/kg SC + DEX 250 mg/kg IP at t=0, pooled data
# [11] = idarubicin 1.50 mg/kg SC + DEX 250 mg/kg IP at t=0
compound,measurement,setting,value
"C[C@@H](CN1CC(=O)NC(=O)C1)N1CC(=O)NC(=O)C1 [ICRF-187, (+)-1,2-bis(3,5-dioxopiperazinyl-1-yl)propane]",wound appearance,[1]; ICRF-187 25 mg/kg IV daily for three days,no wound appeared
same,wound appearance,[1]; ICRF-187 50 mg/kg IV at t=0,a small wound appeared
same,ulcer or skin-necrosis,"[2]; 149 mg doxorubicin infused subcutaneously, ICRF-187 day 1-3, 30 days evaluation",No ulcer or signs of skin-necrosis developed
same,side effects from the treatment,"[2]; ICRF-187 1000, 1000, 500 mg/m^2 on day 1, 2, 3, initiated 2 h 30 m after extravasation",no side effects
same,Mean AUC,[3]; [5],4 mm^2 × days
same,Mean DWw ± SEM,[3]; [5],13.0 ± 0.0 days
same,Mean TTWw ± SEM,[3]; [5],12.0 ± 0.0 days
same,Nw/NG,[3]; [5],11%
same,Mean AUC,[3]; [6],38 mm^2 × days
same,Mean DWw ± SEM,[3]; [6],20.0 ± 0.0 days
same,Mean TTWw ± SEM,[3]; [6],6.0 ± 0.0 days
same,Nw/NG,[3]; [6],11%
same,Mean AUC,[3]; [7],44 mm^2 × days
same,Mean DWw ± SEM,[3]; [7],17.5 ± 0.5 days
same,Mean TTWw ± SEM,[3]; [7],8.0 ± 0.0 days
same,Nw/NG,[3]; [7],22%
same,reduction in the AUC,"[3]; Example 9, idarubicin 0.75 mg/kg sc, ICRF-187 250 mg/kg IP vs saline, p<0.05",90%
same,AUC,[3]; [8],4 (± 4) mm^2×days
same,DW,[3]; [8],13.0 (± 0.0) days
same,FW,[3]; [8],11%
same,TTW,[3]; [8],12.0 (± 0.0) days
same,AUC,[3]; [9],38 (± 38) mm^2×days
same,DW,[3]; [9],20.0 (± 0.0) days
same,FW,[3]; [9],11%
same,TTW,[3]; [9],6.0 (± 0.0) days
same,AUC,[3]; [10],42 (± 19) mm^2×days
same,DW,[3]; [10],15.6 (± 2.7) days
same,FW,[3]; [10],28%
same,TTW,[3]; [10],10.2 (± .5) days
same,AUC,[3]; [11],183 (± 54) mm^2×days
same,DW,[3]; [11],17.8 (± 0.9) days
same,FW,[3]; [11],75%
same,TTW,[3]; [11],7.7 (± 0.2) days
same,deaths due to the treatment,"[3]; mouse, in vivo",no deaths due to the treatment
same,ulcer development,[4],did not develope an ulcer
